According to BindingDB's records for doi:10.1016/s0960-894x(03)00639-5 (Instituto De Química Médica (Csic), 2003):

How the values were obtained:
[1] = molecular target: Thymidine kinase 2, mitochondrial (Homo sapiens) (UniProt O00142); assay: Inhibitory concentration on phosphorylation of [methyl-3H]-dTh by human Thymidine Kinase 2
[2] = molecular target: Thymidine kinase (Herpes simplex virus 1); assay: Inhibitory concentration on phosphorylation of [methyl-3H]-dTh by HSV-1 Thymidine Kinase

Chain of Thymidine kinase 2, mitochondrial (Homo sapiens) (O00142 whole entry, looked up): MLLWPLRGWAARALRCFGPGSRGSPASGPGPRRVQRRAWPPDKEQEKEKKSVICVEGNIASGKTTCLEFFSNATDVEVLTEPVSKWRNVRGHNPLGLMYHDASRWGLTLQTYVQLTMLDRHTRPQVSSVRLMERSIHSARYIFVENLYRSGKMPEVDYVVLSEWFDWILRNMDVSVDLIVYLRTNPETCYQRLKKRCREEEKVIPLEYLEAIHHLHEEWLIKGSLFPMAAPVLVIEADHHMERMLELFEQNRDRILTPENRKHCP

Structure (SMILES) | IC50 [1] [µM] | IC50 [2] [µM]
Cc1cn(C/C=C\CNCc2ccccc2)c(=O)[nH]c1=O [1-(4-Benzylamino-but-2-enyl)-5-methyl-1H-pyrimidine-2,4-dione] | 57 | > 500
Cc1cn(C/C=C\CN(Cc2ccccc2)Cc2ccccc2)c(=O)[nH]c1=O [1-(4-Dibenzylamino-but-2-enyl)-5-methyl-1H-pyrimidine-2,4-dione] | 3.5 | –
Cc1cn(C/C=C\CNC(=O)c2cccc(C(F)(F)F)c2)c(=O)[nH]c1=O [N-[4-(5-Methyl-2,4-dioxo-3,4-dihydro-2H-pyrimidin-1-yl)-but-2-enyl]-3-trifluoromethyl-benzamide] | 28 | 72
